Test results as given in patent publication US12103952B2, “Methods for expressing proteins in axons” (Cornell University, priority 2010, dated 2024).

Tested on: DRG axons
Test: IRES-driven myr-dEGFP Sindbis reporter in compartmented cultures with translation inhibitors
Format: cell-based, rat
Settings: added for 48 hrs to the axonal compartment
Description: FIGS. 1A-O are data showing that the compartmentalization of DRGs enables axon-specific manipulations and quantitative measurement using fluorescent probes. (A) Immunofluorescence analysis of 3 DIV DRG cultures+/−5-FdU. […] Scale bar, 50 μm. […] Scale bar, 50 μm. (C) Immunofluorescence analysis of compartmented cultures (montage micrographs). Retrogradely labeled (WGA-Alexa555, red) DRG axons fasciculate and grow under the 1 mm divider into the axon compartment. Axons defasciculate as they enter the axon compartment. Cell bodies (DAPI, blue) are restricted to the cell body compartment. Only WGA-Alexa555 labeled cell bodies are included in data sets, as they comprise the population of neurons extending axons across the divider. (D) Dissociated DRG neurons (5 DIV) in compartmented cultures were treated with NGF in either or both compartments. […] Numbers on bars represent n cells per condition. (E, F) DRG axons in compartmented cultures were infected with a Sindbis virus encoding myr-dEGFP under the control of an IRES by applying the virus to both cell body and axonal compartments. […] All compartments were maintained in identical NGF-containing media throughout the course of the experiment. […] Incomplete abolishment of FISH signals, relative to siRNA-treated axons, reflects residual alternatively-spliced CREBβ transcripts in these hypomorphic animals (Blendy et al., EMBO Journal 15, 1098-1106 (1996)). Additionally, axonal mRNAs are trafficked as mRNA-ribosome complexes, and impaired CREBβ mRNA-ribosome interactions due to the poor Kozak site (Blendy et al., EMBO Journal 15, 1098-1106 (1996)) in this transcript may lead to inefficient trafficking. Scale bar, 10 μm. (H) Quantification of data in (G). *p<0.0001. Numbers on bars represent n axons per condition. (I) Similar to the experiment in FIG. 4A, except equivalent numbers of cell bodies and axon terminals were used for Western blotting. DRG explants were cultured in Boyden chambers, and the upper compartment was incubated in 0 ng/ml NGF. The lower compartment was incubated in either 0 ng/ml NGF or 100 ng/ml NGF for 3 hours. Axon lysates (˜10^4 cells) were prepared from the underside of the membrane and analysed by Western blot. As in FIG. 4A, only CREB was detected in axons, and CREB localization in […] axons was dependent on NGF in the culture media. (J) DRG cultures were transfected with CREB siRNA and CREB levels were detected using a CREB antibody. […] Scale bar, 20 μm. (K) Quantification of data in (J). *p<0.001. Numbers on bars represent n axons per condition. (L) E15 DRG neuronal lysate (10 μg) was subjected to immunoblotting with the CST-9192 CREB antibody. (M) CREB was detected by immunofluorescence using CREB antibody sc-186 (see I, FIG. 4A, and Table S4). Scale bar 10 μm. […] (0) Quantification of data in (M). *p<0.0001. […]

| SMILES | myr-EGFP fluorescence in the axonal compartment | myr-EGFP levels in the cell body compartment |
| --- | --- | --- |
| C[C@@H]1C[C@@H]([C@H](O)CC2CC(=O)NC(=O)C2)C(=O)[C@@H](C)C1 [cycloheximide] | loss of myr-EGFP fluorescence | no significant effect |
| COc1ccc(C[C@H]2NC[C@H](O)[C@H]2OC(C)=O)cc1 [anisomycin] | loss of myr-EGFP fluorescence | no significant effect |
